Measurements: patent publication US20100179221A1, “FLUORINE-SUBSTITUTED AMPHETAMINES AND AMPHETAMINE DERIVATIVES AND USE THEREOF” (Universitat Tubingen, priority 2007, published 2010)

What was measured:
[1] = test system: Haloperidol-induced catalepsy; experiment: Haloperidol-induced catalepsy test (descent test), model for parkinsonism; assay type: in vivo, Sprague-Dawley rats; settings: for descent latency: rats after haloperidol 0.5 mg/kg, compound 5 mg/kg, FIG. 1, vehicle control about 130 seconds
Description: (§1) Next, rats (Sprague-Dawley rats; Charles-River, Sulzfeld, Germany) were established as the animal model. The rats were kept in constant, reproducible conditions. Sprague-Dawley rats weighing about 220 to 300 g were used in the experiment. The rats were kept in groups. A light cycle of 12:12 hours was maintained (light switched on from 07:00 to 19:00 hours). For two weeks before the experiments, all the rats were kept in the same room. Water was made available ad libitum, standard animal feed was supplied once daily in an amount of 12 g per animal. All experiments were carried out between 09:00 and 17:00 hours and complied with international ethical standards and the German animal protection law. It was approved by the Animal Protection Commission, Tübingen Administrative Board, ZP 5/01.
Haloperidol-induced catalepsy is used here as a model for parkinsonism. Haloperidol is a dopamine receptor-blocking drug. The catalepsy induced in this way comprises akinesia and rigor. The haloperidol model can be treated with all known clinically effective antiparkinsonism drugs, as described above.
Dopamine hypofunction and the consequent parkinsonian symptoms were generated as follows.
Control Group: • Haloperidol (Haldol, Janssen®, Germany) was diluted with phosphate buffered saline (PBS; Sigma, Deisenhofen, Germany) to a concentration of 0.5 mg per ml. Twelve rats were each given an intraperitoneal (i.p.) injection of this solution with an absolute amount of haloperidol of 0.5 mg per kilogram of body weight and an injection with PBS.
Test Group: • Another twelve rats were treated identically, but instead of the PBS injection were given a fluorine-substituted amphetamine derivative 1-(3,4-difluorophenyl)-2-(N-ethylamino)propane (Formula III) dissolved in PBS.
The results of the descent tests are illustrated in FIG. 1. […] The descent latency of rats treated with MDMA (5 mg/kg) was much less, at about 30 seconds, but for the rats treated with 1-(3,4-difluorophenyl)-2-(N-ethylamino)propane (fMDE, Formula (III), 5 mg/kg) it was even lower.

[2] = test system: L-DOPA-induced dyskinesias; experiment: L-DOPA-induced dyskinesia (AIM) in 6-hydroxydopamine hemiparkinsonian rats; assay type: in vivo
Description: as §1
24 rats were put in deep narcosis. One hemisphere of the rats was treated in each case with the neurotoxin 6-hydroxydopamine, which destroyed dopaminergic neurons in this hemisphere. […] Then the animals were treated intraperitoneally with an antiparkinsonian drug twice daily for 25 days. This comprised L-DOPA-methyl ester in an amount of 10 mg per kg of body weight with benserazide in an amount of 7.5 mg per kg of body weight (Sigma, Deisenhofen, Germany). Under this treatment the rats developed dyskinesias of the contralateral forepaws.
Control Group: • Continuing this treatment, 12 of the 24 rats were treated additionally with PBS.
Test Group: • The other twelve rats were treated additionally with a fluorinated amphetamine derivative 1-(3,4-difluorophenyl)-2-(N-ethylamino)propane (Formula III).
The results for the treatment are illustrated in FIG. 2. The dyskinesia was quantified (AIM=abnormal involuntary movements) in the control group on five successive days. […] For comparison, the dyskinesia quantification of the test group, i.e., the animals additionally treated with 1-(3,4-difluorophenyl)-2-(N-ethylamino)propane (Formula (III), fMDE, 5 mg/kg), was observed. The measurements were in each case recorded 60 minutes after the animals were treated. […]

Row | SMILES | akinesia and rigor in the catalepsy test, test group versus control group ([1]; haloperidol 0.5 mg/kg i.p., compound dissolved in PBS, versus haloperidol + PBS) | descent latency [1] | onset of the antidyskinetic effect ([2]; 5 mg/kg, administration on successive days) | number of AIMs (abnormal involuntary movements) per 4 min versus vehicle control ([2]; 5 mg/kg, recorded 60 minutes after treatment, five successive days, FIG. 2) | expression of the dyskinesias, test group versus control group ([2]; in addition to L-DOPA-methyl ester 10 mg/kg + benserazide 7.5 mg/kg)
1 | CCNC(C)Cc1ccc(F)c(F)c1 (stereo not drawn) [Formula III, 1-(3,4-difluorophenyl)-2-(N-ethylamino)propane] | significantly less pronounced | even lower | already seen on the first day | almost halved | significantly reduced
2 | CNC(C)Cc1ccc2c(c1)OCO2 (stereo not drawn) [MDMA, 3,4-methylene dioxymethamphetamine, reference compound] |  | about 30 seconds |  |  | 
